pIC50: −log10 of the molar value. Activity calls are given as the source filed them. The rule behind the calls is not given here.
Experiments:
[1] = test system: A549; assay: Induction of apoptosis in human A549 cells assessed as early apoptotic cells at 4 uM after 48 hrs by Annexin V-FITC/propidium iodide satining based FACS analysis (reference value: 2.78%); type: functional
[2] = test system: A549; assay: Induction of apoptosis in human A549 cells assessed as necrotic cells at 3 uM after 48 hrs by Annexin V-FITC/propidium iodide satining based FACS analysis (reference value: 0.14%); type: functional
[3] = molecular target: T1, Epidermal growth factor receptor (Homo sapiens, UniProt P00533); details: A549, at 5 µM
Description: Inhibition of EGF-induced EGFR activation in human A549 cells assessed as reduction in Akt phosphorylation at S473 residue at 5 uM preincubated for 2 hrs followed by EGF stimulation measured after 10 mins by Western blot analysis

[4] = molecular target: T1, Epidermal growth factor receptor; details: A549, at 5 µM; remark: listed apart in the source
Description: Inhibition of EGF-induced EGFR phosphorylation at Y1086 residue in human A549 cells at 5 uM preincubated for 2 hrs followed by EGF stimulation measured after 10 mins by Western blot analysis

[5] = molecular target: T1, Epidermal growth factor receptor; details: A549, at 5 µM; remark: listed apart in the source
Description: Inhibition of EGF-induced EGFR phosphorylation at Tyrosine residue in human A549 cells at 5 uM preincubated for 2 hrs followed by EGF stimulation measured after 10 mins by Western blot analysis

[6] = test system: A549; assay: Induction of apoptosis in human A549 cells assessed as necrotic cells at 1 uM after 48 hrs by Annexin V-FITC/propidium iodide satining based FACS analysis (reference value: 0.14%); type: functional
[7] = test system: A549; assay: Induction of apoptosis in human A549 cells assessed as early apoptotic cells at 3 uM after 48 hrs by Annexin V-FITC/propidium iodide satining based FACS analysis (reference value: 2.78%); type: functional
[8] = test system: A549; assay: Cell cycle arrest in human A549 cells after 48 hrs by propidium iodide satining based FACS analysis; type: functional
[9] = test system: A549; assay: Cell cycle arrest in human A549 cells assessed as accumulation at S phase at 2 uM after 48 hrs by propidium iodide satining based FACS analysis (reference value: 34.45%); type: functional
[10] = test system: A549; assay: Induction of apoptosis in human A549 cells assessed as early apoptotic cells at 1 uM after 48 hrs by Annexin V-FITC/propidium iodide satining based FACS analysis (reference value: 2.78%); type: functional
[11] = test system: A549; assay: Induction of apoptosis in human A549 cells assessed as necrotic cells at 2 uM after 48 hrs by Annexin V-FITC/propidium iodide satining based FACS analysis (reference value: 0.14%); type: functional
[12] = test system: A549; assay: Antiproliferative activity against human A549 cells harboring wild type EGFR/K-ras mutant after 72 hrs by MTT assay; type: functional, cell-based; details: A549, 72 h
[13] = test system: A549; assay: Cell cycle arrest in human A549 cells assessed as accumulation at S phase at 5 uM after 48 hrs by propidium iodide satining based FACS analysis (reference value: 34.45%); type: functional
[14] = molecular target: T1, Epidermal growth factor receptor; details: A549, at 5 µM; remark: listed apart in the source
Description: Inhibition of EGF-induced EGFR phosphorylation at Y992 residue in human A549 cells at 5 uM preincubated for 2 hrs followed by EGF stimulation measured after 10 mins by Western blot analysis

[15] = test system: Epidermal growth factor receptor (Homo sapiens), P00533 [L858R,T790M]; assay: Inhibition of EGF-induced EGFR L858R/T790M double mutant phosphorylation at Y992 residue in human NCI-H1975 cells preincubated for 2 hrs followed by EGF stimulation measured after 10 mins by Western blot analysis; type: cell-based
[16] = test system: A549; assay: Induction of apoptosis in human A549 cells assessed as necrotic cells at 4 uM after 48 hrs by Annexin V-FITC/propidium iodide satining based FACS analysis (reference value: 0.14%); type: functional
[17] = test system: Epidermal growth factor receptor (Homo sapiens), P00533 [L858R,T790M]; assay: Inhibition of EGF-induced EGFR L858R/T790M double mutant activation in human NCI-H1975 cells assessed as reduction in STAT3 phosphorylation at Y705 residue at 5 uM preincubated for 2 hrs followed by EGF stimulation measured after 10 mins by Western blot analysis; type: cell-based
[18] = test system: A549; assay: Induction of apoptosis in human A549 cells assessed as viable cells at 1 uM after 48 hrs by Annexin V-FITC/propidium iodide satining based FACS analysis (reference value: 95.87%); type: functional; details: A549, 48 h, read-out: Activity
[19] = test system: A549; assay: Effect on total EGFR protein expression in human A549 cells at 0.2 to 5 uM after 2 hrs by Western blot analysis; type: ADME, cell-based; details: a549, 2 h
[20] = test system: A549; assay: Cell cycle arrest in human A549 cells assessed as accumulation at G2/M phase at 0.5 uM after 48 hrs by propidium iodide satining based FACS analysis (reference value: 16.09%); type: functional
[21] = test system: A549; assay: Cell cycle arrest in human A549 cells assessed as accumulation at G0/G1 phase at 2 uM after 48 hrs by propidium iodide satining based FACS analysis (reference value: 48.87%); type: functional
[22] = molecular target: T1, Epidermal growth factor receptor; type: cell-based, HEK293
Description: Inhibition of recombinant human N-terminal His-tagged EGFR (1 to 645 residues) expressed in HEK293 cells by ELISA

[23] = molecular target: T1, Epidermal growth factor receptor; assay: Inhibition of EGF-induced EGFR activation in human A549 cells assessed as reduction in ERK1/2 phosphorylation at T202/Y204 residues at 0.2 uM preincubated for 2 hrs followed by EGF stimulation measured after 10 mins by Western blot analysis; type: cell-based
[24] = molecular target: T1, Epidermal growth factor receptor; assay: Inhibition of EGF-induced EGFR phosphorylation at Tyrosine residue in human A549 cells at 0.2 uM preincubated for 2 hrs followed by EGF stimulation measured after 10 mins by Western blot analysis; type: cell-based
[25] = molecular target: Epidermal growth factor receptor (Homo sapiens, UniProt P00533, T790M); assay: Inhibition of EGFR T790M mutant (unknown origin) preincubated for 10 mins followed by TK substrate-botion addition measured after 1 hr by spectrophotometric method
[26] = test system: A-431; assay: Antiproliferative activity against human A431 cells harboring wild type EGFR after 72 hrs by MTT assay; type: functional, cell-based; details: A-431, 72 h
[27] = test system: A549; assay: Induction of apoptosis in human A549 cells assessed as viable cells at 4 uM after 48 hrs by Annexin V-FITC/propidium iodide satining based FACS analysis (reference value: 95.87%); type: functional; details: A549, 48 h, read-out: Activity

T1 sequence (P00533 whole entry): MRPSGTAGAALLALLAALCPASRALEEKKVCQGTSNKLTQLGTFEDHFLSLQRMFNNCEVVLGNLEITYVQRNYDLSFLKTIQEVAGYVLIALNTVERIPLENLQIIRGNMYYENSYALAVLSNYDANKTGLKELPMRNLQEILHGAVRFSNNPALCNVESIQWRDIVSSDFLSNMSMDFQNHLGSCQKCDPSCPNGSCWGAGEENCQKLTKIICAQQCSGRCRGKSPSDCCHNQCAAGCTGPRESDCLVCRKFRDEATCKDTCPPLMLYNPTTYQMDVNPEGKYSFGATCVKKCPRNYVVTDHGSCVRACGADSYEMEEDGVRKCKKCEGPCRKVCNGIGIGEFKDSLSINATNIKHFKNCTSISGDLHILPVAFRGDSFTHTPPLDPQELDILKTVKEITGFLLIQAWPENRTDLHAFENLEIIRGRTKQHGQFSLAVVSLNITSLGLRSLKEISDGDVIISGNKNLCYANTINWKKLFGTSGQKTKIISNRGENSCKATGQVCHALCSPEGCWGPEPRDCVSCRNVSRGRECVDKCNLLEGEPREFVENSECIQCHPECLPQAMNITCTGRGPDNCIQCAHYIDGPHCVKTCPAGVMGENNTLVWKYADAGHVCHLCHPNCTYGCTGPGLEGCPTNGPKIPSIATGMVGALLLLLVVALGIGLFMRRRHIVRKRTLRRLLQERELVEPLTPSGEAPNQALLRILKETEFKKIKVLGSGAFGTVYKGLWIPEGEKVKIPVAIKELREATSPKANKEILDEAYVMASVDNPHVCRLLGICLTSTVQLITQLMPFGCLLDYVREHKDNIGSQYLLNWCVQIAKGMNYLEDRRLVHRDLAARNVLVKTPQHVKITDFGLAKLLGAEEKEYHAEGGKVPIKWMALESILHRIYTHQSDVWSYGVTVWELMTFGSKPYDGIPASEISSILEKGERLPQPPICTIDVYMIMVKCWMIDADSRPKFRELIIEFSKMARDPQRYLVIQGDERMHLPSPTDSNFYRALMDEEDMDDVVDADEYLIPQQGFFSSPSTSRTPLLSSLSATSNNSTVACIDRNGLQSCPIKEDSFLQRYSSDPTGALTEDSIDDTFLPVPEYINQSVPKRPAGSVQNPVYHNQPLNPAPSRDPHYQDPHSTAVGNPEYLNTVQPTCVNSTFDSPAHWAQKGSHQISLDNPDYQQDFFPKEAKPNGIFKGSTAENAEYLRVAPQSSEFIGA
Sequence of Epidermal growth factor receptor (Homo sapiens), P00533 [L858R,T790M] (P00533 whole entry T790M/L858R, looked up): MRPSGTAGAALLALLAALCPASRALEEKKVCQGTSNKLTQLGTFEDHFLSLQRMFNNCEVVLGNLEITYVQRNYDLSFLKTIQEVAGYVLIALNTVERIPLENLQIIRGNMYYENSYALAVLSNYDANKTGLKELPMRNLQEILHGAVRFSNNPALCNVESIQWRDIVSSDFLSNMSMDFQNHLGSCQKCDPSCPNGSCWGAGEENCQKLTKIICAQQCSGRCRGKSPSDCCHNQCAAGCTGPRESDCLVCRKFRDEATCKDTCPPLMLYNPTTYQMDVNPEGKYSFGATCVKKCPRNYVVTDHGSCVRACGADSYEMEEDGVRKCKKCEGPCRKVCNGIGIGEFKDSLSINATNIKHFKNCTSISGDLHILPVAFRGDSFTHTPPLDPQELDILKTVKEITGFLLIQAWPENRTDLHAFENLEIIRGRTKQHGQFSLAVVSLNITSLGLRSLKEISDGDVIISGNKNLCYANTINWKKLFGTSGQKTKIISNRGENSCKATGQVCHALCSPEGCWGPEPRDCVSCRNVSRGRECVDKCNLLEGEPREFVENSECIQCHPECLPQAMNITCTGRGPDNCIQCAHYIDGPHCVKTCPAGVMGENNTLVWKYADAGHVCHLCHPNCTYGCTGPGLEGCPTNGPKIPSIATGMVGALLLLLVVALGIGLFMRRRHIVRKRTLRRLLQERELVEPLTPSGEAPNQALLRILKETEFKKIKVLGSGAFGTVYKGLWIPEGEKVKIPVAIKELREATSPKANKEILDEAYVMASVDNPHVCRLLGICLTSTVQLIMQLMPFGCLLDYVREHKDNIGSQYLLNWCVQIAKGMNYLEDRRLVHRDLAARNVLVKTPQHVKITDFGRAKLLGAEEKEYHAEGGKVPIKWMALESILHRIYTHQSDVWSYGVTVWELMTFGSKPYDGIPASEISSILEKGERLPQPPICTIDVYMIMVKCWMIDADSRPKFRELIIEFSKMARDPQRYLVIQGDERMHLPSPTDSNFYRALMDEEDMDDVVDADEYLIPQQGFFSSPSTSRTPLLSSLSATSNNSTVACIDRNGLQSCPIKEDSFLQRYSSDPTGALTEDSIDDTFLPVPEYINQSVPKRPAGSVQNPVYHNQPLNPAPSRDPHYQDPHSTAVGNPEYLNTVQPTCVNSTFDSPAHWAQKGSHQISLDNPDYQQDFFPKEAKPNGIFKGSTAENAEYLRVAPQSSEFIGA
Sequence of Epidermal growth factor receptor (Homo sapiens, UniProt P00533, T790M) (P00533 25-1210 T790M limits assumed): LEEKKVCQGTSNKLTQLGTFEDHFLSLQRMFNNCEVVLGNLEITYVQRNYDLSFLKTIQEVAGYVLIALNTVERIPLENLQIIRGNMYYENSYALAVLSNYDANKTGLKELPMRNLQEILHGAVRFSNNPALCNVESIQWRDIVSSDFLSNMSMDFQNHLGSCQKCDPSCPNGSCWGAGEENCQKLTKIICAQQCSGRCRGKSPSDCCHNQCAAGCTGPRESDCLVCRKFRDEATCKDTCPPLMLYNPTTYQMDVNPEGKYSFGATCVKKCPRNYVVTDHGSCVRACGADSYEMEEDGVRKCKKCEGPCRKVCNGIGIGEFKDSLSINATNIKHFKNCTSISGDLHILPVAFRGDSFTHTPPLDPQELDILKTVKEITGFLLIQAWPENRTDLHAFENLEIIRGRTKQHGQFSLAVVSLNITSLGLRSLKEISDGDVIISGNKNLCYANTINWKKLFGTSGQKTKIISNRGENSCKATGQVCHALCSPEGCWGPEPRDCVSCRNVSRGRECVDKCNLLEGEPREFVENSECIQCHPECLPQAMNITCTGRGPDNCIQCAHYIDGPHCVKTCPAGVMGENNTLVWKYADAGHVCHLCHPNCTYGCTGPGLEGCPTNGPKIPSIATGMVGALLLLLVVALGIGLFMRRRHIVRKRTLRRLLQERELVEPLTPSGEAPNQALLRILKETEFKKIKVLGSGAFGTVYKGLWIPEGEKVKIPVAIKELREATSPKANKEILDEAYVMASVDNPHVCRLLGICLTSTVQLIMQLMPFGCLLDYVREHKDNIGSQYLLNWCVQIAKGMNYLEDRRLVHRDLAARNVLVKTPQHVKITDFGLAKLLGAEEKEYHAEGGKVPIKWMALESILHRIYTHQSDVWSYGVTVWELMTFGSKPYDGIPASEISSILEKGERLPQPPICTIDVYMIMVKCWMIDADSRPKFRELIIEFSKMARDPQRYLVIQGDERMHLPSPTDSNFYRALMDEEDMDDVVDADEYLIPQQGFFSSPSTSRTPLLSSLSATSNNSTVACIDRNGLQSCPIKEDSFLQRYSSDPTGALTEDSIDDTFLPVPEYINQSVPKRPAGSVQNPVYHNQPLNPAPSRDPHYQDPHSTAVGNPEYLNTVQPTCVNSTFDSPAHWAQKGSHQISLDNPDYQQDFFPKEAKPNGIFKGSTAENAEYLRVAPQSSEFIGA

With `Fc1cccc(COc2ccc(Nc3ncnc4cc(OCCCN5CCOCC5)c(OCCCN5CCOCC5)cc34)cc2Cl)c1` the Activity [1] was 14.81%, the Activity [2] was 0.23% and the inhibition [3] was “Active”. The inhibition [4] was “Active”, the inhibition [5] was “Active” and the Activity [6] was 0.4%. The Activity [7] was 8.52%, the Activity [8] was “Dose-dependent effect” and the Activity [9] was 30.54%. For the same compound, the Activity [10] was 3.9%, the Activity [11] was 0.31% and the pIC50 [12] was 5.78. For the same compound, the Activity [13] was 17.61%, the inhibition [14] was “Active” and the inhibition [15] was “Dose-dependent effect”. The Activity [16] was 0.57%, the inhibition [17] was “inactive” and the viability at 1 µM [18] was 92.3%. The Activity [19] was “Non-Toxic”, the Activity [20] was 14.96% and the Activity [21] was 58.45%. The pIC50 [22] was 8.15, the inhibition [23] was “Active” and the inhibition [24] was “Active”. For the same compound, the pIC50 [25] was 8.03, the pIC50 [26] was 5.88 and the viability at 4 µM [27] was 48.4%.

Reference: ChEMBL document CHEMBL4145533, “6,7-Dimorpholinoalkoxy quinazoline derivatives as potent EGFR inhibitors with enhanced antiproliferative activities against tumor cells” (Eur J Med Chem, 2018)
